Patent publication US9937145B2, “Sulfamate derivative compound for use in preventing or treating epilepsy” (Bio-Pharm Solutions Co., Ltd., priority 2013, dated 2018)
Read-outs that look alike come from different tables or passages of the source. Marks after values point to notes of the source that are not given here.

Key:
[1] = test system: male SD rats; test: MES test (anti-epilepsy activity), rats, oral (rMES po); type: in vivo; details: for ED50: Rattus norvegicus, rats, at peak time; for rMES(po) Protection %: 3 rats
Description: (§1) Biological Experimental Example. 1: Measurement of Anti-Epilepsy Activity (MES-Test)
(§2) In the MES test (Ref., G. Villetti et al. Neuropharmacology 40(2001) 866-878), an electrical stimulus (mice: 50 mA, 60 Hz, 0.2 sec, and rats: 150 mA, 60 Hz, 0.2 sec in the test animal) supplied by an 11 A Shocker (IITC Life Science Company) was delivered through corneal electrodes. All mice or rats assigned to any electroshock at peak time were treated with each test compound sample which was dissolved in 20% tween 80 prepared by saline solvent applied orally before the test. […] Three doses of the test sample were administered orally to 9-18 animals (3-6 mice per dose) for evaluating the respective doses at which 50% of the animals were protected from seizure (ED50). The ED50 value (median effective close) was calculated by Litchfield and Wicoxon log-probit method which is a dose-response relationship. Experimental animals, male ICR mice and male SD rats, were purchased from OrientBio, Samtako, or Nara Biotech, Korea, and housed in cages (4-5 mice or 3 rats per cage) for 4-5 days. The range of mice body weight was between 19 and 25 grams and range of rats body weight was between 100 and 130 grams.
(§3) The obtained results are shown as mean±sem. The difference between the groups was statistically analyzed by ANOVA, and then further examined by Dunnett's test or Bonferroni test. If p is less than 0.05, it was determined that the difference between the groups had statistical significance.
(§4) The results of anti-epileptic activity of the sulfamate derivative compounds measured in the above Experimental Example are shown in the following Tables 4 and 5.

[2] = test system: male ICR mice; test: MES test (anti-epilepsy activity), mice, oral (mMES po); type: in vivo; details: Mus musculus; for responders at 50 mg/kg: injection amount 50 mg/kg; for ED50: mice, at peak time; for responders at 80 mg/kg: injection amount 80 mg/kg
Description: as §1, §2, §3, §4

[3] = 3 mice, read-out: mMES(po) Protection %

SMILES: CC1(C)O[C@@H](COS(N)(=O)=O)[C@H](c2cnc(Cl)s2)O1 [Example 166, ((4R, 5S)-5-(2-chlorothiazol-5-yl)-2,2-dimethyl-1,3-dioxolan-4-yl)methylsulfamate]
- ED50 [1]: 1.9 mg/kg
- responders at 100 mg/kg ([2]; injection amount 100 mg/kg, 3 mice, read-out: mMES(po) Protection %): 100%

SMILES: CC1(C)O[C@@H](COS([NH-])(=O)=O)[C@H](c2ccccc2Cl)O1.[Na+] [Example 177, sodium ((((4S,5S)-5-(2-chlorophenyl)-2,2-dimethyl-1,3-dioxolan-4-yl)methoxy)sulfonyl)amide]
- rMES(po) Protection % ([1]; injection amount 3.5 mg/kg): 3.5^a (100%)

SMILES: Cc1nc(Cl)sc1[C@H]1OC(C)(C)O[C@@H]1COS(N)(=O)=O [Example 169, ((4R, 5S)-2,2-dimethyl-5-(2-chloro-4-methylthiazol-5-yl)-1,3-dioxolan-4-yl)methylsulfamate]
- rMES(po) Protection % ([1]; injection amount 15 mg/kg): 15^a (100%)
- responders at 30 mg/kg ([2]; injection amount 30 mg/kg, 3 mice, read-out: mMES(po) Protection %): 100%

SMILES: CC1(C)O[C@H](c2sc(Cl)nc2Cl)[C@@H](COS(N)(=O)=O)O1 [Example 163, ((4R, 5S)-5-(2,4-dichlorothiazol-5-yl)-2,2-dimethyl-1,3-dioxolan-4-yl)methyl sulfamate]
- ED50 [1]: 6.5 mg/kg
- responders at 50 mg/kg ([2]; 4 mice, read-out: mMES(po) Protection %): 50%

SMILES: CC1(C)O[C@@H](COS(=O)(=O)[NH][Na])[C@H](c2ccccc2N)O1 [Example 66]
- ED50 [1]: 11.8 mg/kg
- ED50 [2]: 12.3 mg/kg

SMILES: CC1(C)O[C@H](c2ccccc2I)[C@@H](COS(N)(=O)=O)O1 [Example 27, ((4R, 5R)-5-(2-iodophenyl)-2,2-dimethyl-1,3-dioxolan-4-yl)methyl sulfamate]
- ED50 [2]: 27.6 mg/kg

SMILES: Cc1ccccc1[C@@H]1OC(C)(C)O[C@H]1COS(N)(=O)=O [Example 92, ((4S, 5S)-5-(2-methylphenyl)-2,2-dimethyl-1,3-dioxolan-4-yl)methyl sulfamate]
- responders at 50 mg/kg [2, 3]: 100%

SMILES: CCC1(CC)O[C@H](CCOS(N)(=O)=O)[C@@H](Cc2ccccc2)O1 [Example 116, 2-((4R, 5R)-5-benzyl-2,2-diethyl-1,3-dioxolan-4-yl)ethyl sulfamate]
- responders at 150 mg/kg ([2]; injection amount 150 mg/kg, 3 mice, read-out: mMES(po) Protection %): 33.3%

SMILES: NS(=O)(=O)OCC[C@H]1OC2(CCCCC2)O[C@@H]1Cc1ccccc1 [Example 120, 2-((2R, 3R)-3-benzyl-1,4-dioxaspiro[4,5]decane-2-yl)ethyl sulfamate]
- responders at 80 mg/kg [2, 3]: 66.6%

SMILES: CCC1(CC)O[C@H](CCOS(N)(=O)=O)[C@@H](Cc2ccccc2Cl)O1 [Example 140, 2-((4R, 5R)-5-(2-chlorobenzyl)-2,2-diethyl-1,3-dioxolan-4-yl)ethyl sulfamate]
- responders at 50 mg/kg [2, 3]: 33.3%

SMILES: CCC1(CC)O[C@@H](CCOS(N)(=O)=O)[C@H](c2ccccc2Cl)O1 [Example 156, 2-((4S, 5S)-5-(2-chlorophenyl)-2,2-diethyl-1,3-dioxolan-4-yl)ethyl sulfamate]
- responders at 80 mg/kg [2, 3]: 100%

SMILES: CCC1(CC)O[C@@H](COS(N)(=O)=O)[C@H](c2ccccc2N)O1 [Example 70, ((4S, 5S)-5-(2-aminophenyl)-2,2-diethyl-1,3-dioxolan-4-yl)methyl sulfamate]
- responders at 50 mg/kg [2, 3]: 100%

SMILES: CC1(C)OC(COS(N)(=O)=O)C(c2ccccc2Cl)O1 (mixture of isomers) [Example 3, (5-(2-chlorophenyl)-2,2-dimethyl-1,3-dioxolan-4-yl)methyl sulfamate(SS & RR mixture)]
- ED50 [2]: 14 mg/kg

SMILES: CC1(C)O[C@@H](CCOS(N)(=O)=O)[C@H](c2ccccc2)O1 [Example 130, 2-((4S, 5S)-5-phenyl-2,2-dimethyl-1,3-dioxolan-4-yl)ethyl sulfamate]
- responders at 50 mg/kg [2, 3]: 33.3%

SMILES: NS(=O)(=O)OCC[C@H]1OC2(CCCC2)O[C@@H]1Cc1ccccc1 [Example 118, 2-((2R, 3R)-3-benzyl-1,4-dioxaspiro[4,4]nonan-2-yl)ethyl sulfamate]
- responders at 80 mg/kg [2, 3]: 66.6%

SMILES: CCC1(CC)O[C@H](COS(N)(=O)=O)[C@@H](Cc2ccccc2)O1 [Example 124, ((4R, 5R)-5-benzyl-2,2-diethyl-1,3-dioxolan-4-yl)methyl sulfamate]
- responders at 50 mg/kg [2, 3]: 100%

SMILES: CC1(C)O[C@@H](COS(N)(=O)=O)[C@H](c2c(Cl)cccc2Cl)O1 [Example 52, ((4S, 5S)-5-(2,6-dichlorophenyl)-2,2-dimethyl-1,3-dioxolan-4-yl)methyl sulfamate]
- responders at 50 mg/kg [2, 3]: 100%
